Experimental data from EP1027880A2, “Use of quaternary ammonium compounds as antiperspirants” (Beiersdorf Aktiengesellschaft, priority 1999, dated 2000).
Where “and” joins values, the source holds several entries; their conditions need not be identical. Identical values can stand only once.

Tested on: Schweißsekretion
Experiment: Imprint method: sweat reduction on the inner forearm after topical application for several days, sauna sweating, silicone imprint with image analysis
Type: in vivo, menschlichen Probanden
Source text: Der Nachweis der Wirksamkeit wurde an menschlichen Probanden mit Hilfe der sogenannten "Imprintmethode" geführt. Bei dieser Methode wird das zu untersuchende Material am Unterarm innen mehrere Tage hintereinander (topisch) angewendet, sodann begeben sich die Probanden in die Sauna zum Schwitzen. An der Untersuchungsstelle wird eine Silikonmasse aufgetragen, die während der Schwitzphase aushärtet. An den Stellen, an denen Schweisströpfchen austreten, bilden sich Abdrücke in der Silikonmasse, welche bildanalytisch ausgewertet werden können. Nach diesem Verfahren wurden zunächst die Wirkstoffe in wäßriger Lösung untersucht und sodann entsprechende kosmetische Zubereitungen.
Es wurden wässrige Lösungen aus Mecetroniumethylsulfat (MES) hergestellt und an 15 Probanden die Schweissreduktion mit Hilfe der Imprint-Methode am inneren Unterarm geprüft. Zum Vergleich wurde eine 10 %ige Aluminiumchlorhydrat-Lösung verwendet

| Compound | Reduktion der Schweißsekretion (10 %ige comparison solution, 15 Probanden, inner forearm) | Reduktion der Schweißsekretion (in vivo) |
| --- | --- | --- |
| Aluminiumchlorhydrat | 93% |  |
| CCCCCCCCCCCCCCCC[N+](C)(C)CC [MES, N-Hexadecyl-N-ethyl-N,N-dimethylammoniumethylsulfat] |  | 93% and 95% |
